{
  "source": "patent US20020086027A1",
  "about": "“Composition and method for enhancing immunological memory response” (priority 1998, published 2002)",
  "key": {"[1]": {"system": "allo-specific precursor T cells", "assay": "Limiting dilution analysis of clonal responder frequency and burst size", "format": "cell-based, human", "text": "Limiting dilution analyses were used to calculate the number of transplantation antigen-specific memory T cells in cultures primed in the presence or absence of POX. Multiple replicate wells of titrated numbers of primed responders were restimulated. the numbers of wells showing proliferative responses at each responder dose were used to calculate the frequency of responding memory t cells in the primed populations. estimates of the extent of proliferation in wells effectively containing single responder cells served as a measure of clonal burst size. […] To determine the frequence of all-specific precursor cells in the various responder populations, titrating numbers (from 10,000 to 200 per well) of variously primed cells were added to a constant number (1×10^5 per well) of g-irradiated stimulator PBMCs. Of the 48 wells plated per responder dose, those wells showing a response at least twice that of the background value were scored positive. The responder frequency was calculated by taking the number of negative wells into account. The response was considered clonal at the responder cell number where the proportion of positively responding wells was less than 37%. At responder cell concentrations showing clonal frequencies, the average cpm values of responding (versus non-responding) wells were used as an estimate of the average clonal burst size of single responding T cells."}, "human T cells": {"system": "human T cells", "assay": "Cytokines in culture (IL-2 in supernatants, IFN-γ during recall)", "format": "cell-based", "text": "Such possibilities make it plausible that signal-transduction pathways can be identified that differentially affect the commitment of responding T cells to the effector vs the memory pathways. […] It was of interest to look at the role of IL-2 in these events. […] Yet, the recall responses of cells primed under cover of […] are far higher than those of cells primed without […]). In fact, if […] is used in a situation in which T cell proliferation is abrogated by Aph it still enhances the response capability of primed T cells (FIG. 9). […] The enhancement in the magnitude of the secondary response caused by the presence of […] during priming is not simply the result of altered kinetics or response either (FIG. 11), but an actual increase. Clearly […] affects T cell priming such that commitment to memory is enhanced at the cost of effector responses, independent of its on T cell proliferation. […] (data not shown)."}, "CD25+ CD4 T cells": {"system": "CD25+ CD4 T cells", "assay": "Flow cytometry of CD25 and Fas (CD95) on primed cells", "format": "cell-based, human", "experimental": "For analysis of cell surface markers, primed cell populations separated on Ficoll-Paque gradients were used. […] Briefly, 1-3×10^5 cells per well were stained with primary antibodies at 4° C., followed by appropriately labeled secondary reagents if required. Samples were analyzed using a Bryte flow cytometer (bio-Rad, Hemel Hampstead, UK). Antibodies to the T cell markers CD3 (OKT3), CD4 (OKT4), and to the activation markers CD25 and Fas (CD95) were used for staining. To detect apoptosis using propidium iodide (PI, Sigma Chemical Co.), antibody-stained cells were fixed and permeabilized with 70% ethanol, washed, and PI […] added just before cytometric analysis. Data were analyzed using FlowJo software (Treestar, San Jose, Calif.).\nThe phenotype of CD4 T cells activated during priming in vitro was examined next using various markers associated with T cell activation. Antibodies against CD25 (IL-2Ra), CD26, CD45RO, CD69 and gp240 were used, but except for CD25, none of the other markers gave consistent and reliable results (data not shown). CD25 expression on CD4 T cells in the responder populations was examined in a two-color flow cytometric analysis at two separate time points,—at the end of six days of priming and after two further rest days in culture after washing and resuspension in resh medium without any stimuli. Most CD25-expressing cells in the primed cultures were CD4 T cells. […] The frequency of CD25 expression increased in the PBMC-primed responders (FIG. 17B) and this percentage was lower if POX (100 μg/ml) was present during priming (FIG. 17C). […] Similar data were observed if dbcAMP was present during priming (data not shown). It can be seen that the proportion of CD25* cells was reproducibly lower if POX was present during priming with allo-PBMCs. However, after 48 hours of rest in culture, the frequency of CD25* cells declined in the populations primed in the absence of POX, while it went up in the group primed under POX cover."}, "[2]": {"system": "experimental autoimmune encephalomyelitis", "settings": "rat, in vivo; cited from earlier work"}},
  "note": "Entries after “also recorded” stand apart in the source; their conditions may differ.",
  "data": [
    {"smiles": "CC(=O)CCCCn1c(=O)c2c(ncn2C)n(C)c1=O", "note": "[POX, pentoxifylline]", "values": [
      {"measurement": "frequency of alloreactive responder (memory) T cells", "setting": "[1]; drug present during priming (POX 100 ug/ml)", "result": "enhanced; also recorded: significantly enhances"},
      {"measurement": "clonal burst size (average clonal proliferative response)", "setting": "[1]; drug-treated vs untreated during priming", "result": "without altering; also recorded: not significantly different"},
      {"measurement": "IL-2 in culture supernatants", "setting": "human T cells; Trental 100 μg/ml treated cultures", "result": "do not find detectable levels"},
      {"measurement": "levels of IFN-γ produced during recall", "setting": "human T cells; primed in presence vs absence of Trental", "result": "not different"},
      {"measurement": "frequency of CD25 expression", "setting": "CD25+ CD4 T cells; after two further rest days in culture without stimuli", "result": "increased frequency"},
      {"measurement": "frequency of CD25 expression", "setting": "CD25+ CD4 T cells; at end of six days of priming, POX 100 μg/ml", "result": "lower"},
      {"measurement": "frequency and level of Fas expression in CD25+ population", "setting": "CD25+ CD4 T cells; presence vs absence of POX during priming", "result": "unchanged"},
      {"measurement": "protection against EAE", "setting": "[2]", "result": "significant protection"}
    ]}
  ]
}
